Values after ≈ are worked out from the molar mass of the structure shown.

By kinetic solubility is commonly meant solubility judged after dilution from a stock solution rather than from solid.

For the data set the following is noted: buffer; pH 7.4; 200.0 µM.
Consider `Clc1cccc(C2Nc3cccc4cccc(c34)N2)c1Cl`, for which the solubility (kinetic) came to 0.5 µg/mL (≈ 1.59 µM).

In turn, `CCCn1c(N2CCN(C(=O)/C=C/C(=O)O)CC2)nc2ccccc21` gave a solubility (kinetic) of more than 51.4 µg/mL.

In turn, `COc1cccc(NC(=O)COC(=O)C2=NN(c3ccccc3)C(=O)CC2)c1` showed a solubility (kinetic) of more than 57.2 µg/mL.

`CCN(C(=O)N1CCOCC1)c1ccccc1` had a kinetic solubility of 34.7 µg/mL (≈ 148 µM).

For `COc1cccc(Oc2nc(-c3ccccc3O)nc3ccccc23)c1`, the solubility (kinetic) was less than 0.4 µg/mL.

With `CS(=O)(=O)N1CCn2c1nc1ccccc12`, the solubility (kinetic) is more than 35.6 µg/mL.

`Cc1ccc(NC(=S)NC(=O)C2CCCCC2)c(Br)c1` showed a kinetic solubility of 1.7 µg/mL (≈ 4.78 µM).

Turning to `COc1ccc(-c2cc(C#N)nc(Cl)n2)cc1`, the solubility (kinetic) was determined as 1.3 µg/mL (≈ 5.29 µM).

Compound `COc1cc(NC(=O)c2onc(C)c2Cl)cc(OC)c1OC` showed a solubility (kinetic) of 28.7 µg/mL (≈ 87.8 µM).

In turn, `COc1ccc(CC(=O)Nc2ccccc2N2CCCCC2)cc1OC` yielded a kinetic solubility of 30.7 µg/mL (≈ 86.6 µM).

`O=C1N=C(N2CCCC2)S/C1=C\C=C\c1ccccc1` came in with a solubility (kinetic) of 10.2 µg/mL (≈ 35.9 µM).

In turn, `NC(=O)c1cc(S(=O)(=O)NCCCc2ccco2)cs1` registered a kinetic solubility of more than 47.2 µg/mL.

Consider `O=C(Nc1cc(Cl)ccc1N1CCOCC1)c1ccco1`, for which the kinetic solubility came out at 3.5 µg/mL (≈ 11.4 µM).

`CC1=C([N+](=O)[O-])C(c2ccc(Cl)cc2)NC(=O)N1C` (configuration not stated): the solubility (kinetic) turned out to be 30.4 µg/mL (≈ 108 µM).

Turning to `OCC1(Cc2ccccc2)CCCN(C2CCCC2)C1` (configuration not stated), the kinetic solubility was 34.1 µg/mL (≈ 125 µM).

Regarding `Cc1ccc(N2C(=O)Nc3ccccc3S2(=O)=O)cc1Cl`, the kinetic solubility is 0.8 µg/mL (≈ 2.48 µM).

The compound `COc1ccc(Nc2cc(C)c3cc([N+](=O)[O-])ccc3n2)cc1` came in with a kinetic solubility of less than 0.2 µg/mL.

In the case of `CCc1noc(C)c1C(=O)NCCc1ccc(Cl)cc1`, the solubility (kinetic) was more than 43.9 µg/mL.

Compound `Cc1ccccc1CN(C)C1CCN(C)CC1` had a solubility (kinetic) of 31.7 µg/mL (≈ 136 µM).

With `O=C(NCC1CCCCC1)c1cccnc1`, the kinetic solubility turned out to be 31.1 µg/mL (≈ 142 µM).

The compound `O=C1NC(=O)N(c2ccc(F)cc2)C(=O)/C1=C/c1ccsc1` returned a solubility (kinetic) of more than 47.4 µg/mL.

`CC(NS(=O)(=O)c1ccc(N)cc1)C1CC2CCC1C2` (configuration not stated) showed a kinetic solubility of 6.8 µg/mL (≈ 23.1 µM).

The compound `COc1cc(SC)ccc1C(=O)Nc1cccc(C)n1` had a solubility (kinetic) of 3.4 µg/mL (≈ 11.8 µM).

With `CCCCn1c(SCC(=O)NC2CC2)nc2ccccc2c1=O`, the solubility (kinetic) was found to be 2.6 µg/mL (≈ 7.84 µM).

Consider `O=C(COC(=O)/C=C/c1ccc(Cl)cc1)NC1CC1`, for which the kinetic solubility was determined as 7.1 µg/mL (≈ 25.4 µM).

`CC(C)c1ccc(NC(=O)c2ccccc2NC(=O)C2CC=CCC2C(=O)O)cc1` (configuration not stated) gave a solubility (kinetic) of more than 61 µg/mL.

On to `O=C(Cc1ccc(Cl)cc1)NCCCNC(=O)c1cccnc1`, for which the kinetic solubility turned out to be 46.2 µg/mL (≈ 139 µM).

In turn, `COc1ccc(CNC(=O)COC(=O)C2CC2C)cc1OC` (configuration not stated) had a kinetic solubility of more than 46.1 µg/mL.

For `CCSc1ncccc1C(=O)N[C@@H](CCSC)C(=O)OC`, the solubility (kinetic) is 36.1 µg/mL (≈ 110 µM).

In the case of `Cc1nnc(SCC(=O)Nc2ccc([N+](=O)[O-])cc2)n1C`, the kinetic solubility was more than 46.1 µg/mL.

On to `COc1ccc(C2(O)C(=O)Nc3ccc(C)cc32)cc1OC` (configuration not stated), for which the kinetic solubility is more than 44.9 µg/mL.

`CCCN1C(=O)C(O)(c2c(C)[nH]c3ccccc23)c2ccccc21` (configuration not stated) displayed a solubility (kinetic) of 26.3 µg/mL (≈ 82.1 µM).

`CN1CCN(C2CC(=O)N(CCc3ccccc3)C2=O)CC1` (configuration not stated): the kinetic solubility is more than 45.2 µg/mL.

As to `CCCCCn1c(N2CCCC2)nc2c1c(=O)n(C)c(=O)n2C`, the solubility (kinetic) is more than 47.9 µg/mL.

`CN[C@@H]1CC[C@H](c2ccc(Cl)c(Cl)c2)c2ccccc21` yielded a solubility (kinetic) of 28.8 µg/mL (≈ 94 µM).

Consider `Cc1cc(Cl)nc(SCC(=O)c2ccccc2)n1`, for which the kinetic solubility stood at 29.3 µg/mL (≈ 105 µM).

In the case of `O=C(c1ccc(Cl)s1)N1CCN(S(=O)(=O)c2ccc(Cl)cc2)CC1`, the kinetic solubility is 3.2 µg/mL (≈ 7.89 µM).

`O=C(COC(=O)CC1CC2CCC1C2)NCc1ccc(F)cc1` (configuration not stated) came in with a kinetic solubility of 46.1 µg/mL (≈ 144 µM).

As to `Cc1ccnc(SC2CC(=O)N(c3ccc(C(C)C)cc3)C2=O)n1` (configuration not stated), the kinetic solubility is more than 51.2 µg/mL.

Regarding `O=C(Cc1cccs1)NCc1cccc(C(F)(F)F)c1`, the kinetic solubility stood at 42.1 µg/mL (≈ 141 µM).

The compound `CSc1nc2c(c(=O)[nH]1)C(c1cccc(Cl)c1)CC(=O)N2` (configuration not stated) had a solubility (kinetic) of 4.6 µg/mL (≈ 14.3 µM).

The compound `CS(=O)(=O)N1CCN(C(=O)c2ccc3c(c2)OCCO3)CC1` yielded a solubility (kinetic) of more than 49 µg/mL.

For the compound `CCc1ccc(C)c(OC(=O)c2cncc(Br)c2)c1`, the kinetic solubility worked out at 2.1 µg/mL (≈ 6.56 µM).

On to `CCN(CC(=O)NCc1cccs1)C(=O)CCOc1ccccc1`, for which the solubility (kinetic) is more than 52 µg/mL.

As for `CCOc1ccc(NC(=S)Nc2ccc(F)cc2)cc1`, the solubility (kinetic) was found to be 8.3 µg/mL (≈ 28.6 µM).

As to `CCOC(=O)CN1C(=O)CC(c2ccccc2)C1=O` (configuration not stated), the solubility (kinetic) is more than 39.2 µg/mL.

As to `CCCC1(CCC)NC(=O)N(CC(=O)N2CCc3ccccc32)C1=O`, the solubility (kinetic) was more than 51.5 µg/mL.

Compound `CCOc1ccc(-n2c(C)c(C(=O)O)c3cc(OC)ccc32)cc1` registered a kinetic solubility of 6.3 µg/mL (≈ 19.4 µM).

`C/C(=C\c1ccccc1)CN1CCN(Cc2ccc(C)o2)C(CCO)C1` (configuration not stated) registered a solubility (kinetic) of 42.2 µg/mL (≈ 119 µM).

`O=C(CN1C(=O)NC2(CCCCCCC2)C1=O)Nc1ccc(OC(F)F)cc1` had a kinetic solubility of 20.8 µg/mL (≈ 52.6 µM).

As for `COc1ccc(Oc2ncccc2NC(=O)c2cccc(C)c2C)cc1`, the kinetic solubility came to 5.9 µg/mL (≈ 16.9 µM).

In turn, `OCCNc1nc2ccccc2n1CC(O)c1ccccc1` (configuration not stated) showed a solubility (kinetic) of 40.4 µg/mL (≈ 136 µM).

These data come from PubChem BioAssay AID1996.
